Assay results reported in patent publication US9833455B2, “Preparation and methods of use for ortho-aryl 5-membered heteroaryl-carboxamide containing multi-targeted kinase inhibitors” (Spacefill Enterprises LLC, priority 2011, dated 2017).
Where two headings read alike, the source gives them in different places.

Key:
Experiment in all cases: Reaction Biology P33 radiolabeled kinase assay, IC50 and time dependence
Format in all cases: biochemical
[1] = target: T1, TNK1 (Homo sapiens, UniProt Q13470); conditions: for IC50: ATP 10 uM, read-out: Compound IC50* TNK1
T1 construct: purchased Reaction Biology Inc (contract assay)
T1 sequence (Q13470 1-666): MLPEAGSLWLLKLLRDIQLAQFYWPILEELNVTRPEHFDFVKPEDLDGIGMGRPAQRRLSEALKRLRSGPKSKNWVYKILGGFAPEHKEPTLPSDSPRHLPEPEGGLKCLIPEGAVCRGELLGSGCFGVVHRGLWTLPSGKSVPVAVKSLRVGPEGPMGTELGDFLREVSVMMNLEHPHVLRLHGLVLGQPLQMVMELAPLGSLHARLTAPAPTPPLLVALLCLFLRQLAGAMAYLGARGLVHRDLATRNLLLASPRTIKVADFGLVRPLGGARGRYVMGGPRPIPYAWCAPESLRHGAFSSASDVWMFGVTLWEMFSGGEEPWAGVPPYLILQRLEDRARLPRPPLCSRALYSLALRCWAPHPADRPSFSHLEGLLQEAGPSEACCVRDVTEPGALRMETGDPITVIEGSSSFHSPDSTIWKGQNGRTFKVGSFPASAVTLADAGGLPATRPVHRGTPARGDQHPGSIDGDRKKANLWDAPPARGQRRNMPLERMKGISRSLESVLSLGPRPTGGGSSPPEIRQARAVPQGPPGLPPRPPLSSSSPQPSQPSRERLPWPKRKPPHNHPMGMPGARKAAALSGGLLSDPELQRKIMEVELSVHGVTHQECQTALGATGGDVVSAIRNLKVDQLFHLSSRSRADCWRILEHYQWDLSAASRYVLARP
Protocol: (§1) “Inhibiting kinase activity” means to decrease the production of an phosphor-peptide by a particular kinase that can be separated by analytical techniques. For example, a comprehensive platform of kinase, protease, phosphatase and epigenetic assays that utilizes cutting-edge microfluidics and informatics tools to provide accurate and rapid results. Profiling data in this application were determined using these techniques at Nanosyn Inc. IC50 data were provided by Reaction Biology Inc using a P33 radiolabeled kinase assay.
(§2) The observation of potency and isoform selectivity with time-dependency for PI3K-γ appears to be unprecedented in the literature. In addition, these activities combined with inhibition of p38-α, Raf-1, DDR and CSF-1R, would be complimentary and potentially synergistic activities for both the treatment of certain inflammation based conditions and cancers.

[2] = target: PI3K-α (Homo sapiens, UniProt P42336); conditions: for IC50: ATP 10 uM, read-out: Compound IC50* PI3K-α
Protocol: as §1, §2

[3] = target: T2, Aurora A (Homo sapiens, UniProt O14965); conditions: for IC50: ATP 10 uM, read-out: Compound IC50* Aurora A
T2 construct: purchased Reaction Biology Inc (contract assay)
T2 sequence (O14965 1-403): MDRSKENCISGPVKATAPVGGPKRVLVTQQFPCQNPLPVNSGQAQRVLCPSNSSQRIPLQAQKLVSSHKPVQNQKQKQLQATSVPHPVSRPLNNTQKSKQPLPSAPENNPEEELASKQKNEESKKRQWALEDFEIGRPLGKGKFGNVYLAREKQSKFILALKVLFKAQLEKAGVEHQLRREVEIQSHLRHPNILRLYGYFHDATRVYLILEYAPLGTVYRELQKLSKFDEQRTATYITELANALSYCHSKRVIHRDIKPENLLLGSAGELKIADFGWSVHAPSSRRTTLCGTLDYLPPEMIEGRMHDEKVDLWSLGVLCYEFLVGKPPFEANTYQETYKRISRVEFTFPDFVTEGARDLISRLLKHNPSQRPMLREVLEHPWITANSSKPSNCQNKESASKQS
Protocol: as §1, §2

[4] = target: T3, ARAF (Homo sapiens, UniProt P10398); conditions: for IC50: ATP 10 uM, read-out: Compound IC50* ARAF
T3 construct: purchased Reaction Biology Inc (contract assay)
T3 sequence (P10398 1-606): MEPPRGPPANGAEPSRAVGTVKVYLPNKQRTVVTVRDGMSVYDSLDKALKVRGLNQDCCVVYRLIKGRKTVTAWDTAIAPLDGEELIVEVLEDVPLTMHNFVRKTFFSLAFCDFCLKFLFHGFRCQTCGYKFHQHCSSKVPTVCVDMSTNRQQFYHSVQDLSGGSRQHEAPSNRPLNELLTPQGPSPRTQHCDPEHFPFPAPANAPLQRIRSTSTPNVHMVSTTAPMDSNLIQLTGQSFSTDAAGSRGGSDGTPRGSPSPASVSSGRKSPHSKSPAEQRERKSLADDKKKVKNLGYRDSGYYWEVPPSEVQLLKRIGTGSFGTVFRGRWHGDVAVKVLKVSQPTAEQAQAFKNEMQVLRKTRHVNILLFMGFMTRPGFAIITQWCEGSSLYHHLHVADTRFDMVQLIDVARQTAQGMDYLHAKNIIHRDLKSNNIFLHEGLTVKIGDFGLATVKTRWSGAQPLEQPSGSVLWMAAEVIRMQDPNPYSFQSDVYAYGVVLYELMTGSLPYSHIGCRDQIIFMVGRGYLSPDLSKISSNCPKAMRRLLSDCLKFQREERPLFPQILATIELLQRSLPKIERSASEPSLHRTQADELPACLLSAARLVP
Protocol: as §1, §2

[5] = target: T4, PI3K-γ (Homo sapiens, UniProt P48736); conditions: for IC50: ATP 10 uM, read-out: Compound IC50* PI3K-γ
T4 construct: purchased Reaction Biology Inc (contract assay)
Protocol: as §1, §2

[6] = target: PDGFR-α (Homo sapiens, UniProt P16234); conditions: for IC50: ATP 10 uM, read-out: Compound IC50* PDGFR-α
Protocol: as §1, §2

[7] = target: T5, PI3K-β (Homo sapiens, UniProt P42338); conditions: for IC50: ATP 10 uM, read-out: Compound IC50* PI3K-β
T5 construct: purchased Reaction Biology Inc (contract assay)
Protocol: as §1, §2

PDGFR-α, sequence (P16234 24-1089): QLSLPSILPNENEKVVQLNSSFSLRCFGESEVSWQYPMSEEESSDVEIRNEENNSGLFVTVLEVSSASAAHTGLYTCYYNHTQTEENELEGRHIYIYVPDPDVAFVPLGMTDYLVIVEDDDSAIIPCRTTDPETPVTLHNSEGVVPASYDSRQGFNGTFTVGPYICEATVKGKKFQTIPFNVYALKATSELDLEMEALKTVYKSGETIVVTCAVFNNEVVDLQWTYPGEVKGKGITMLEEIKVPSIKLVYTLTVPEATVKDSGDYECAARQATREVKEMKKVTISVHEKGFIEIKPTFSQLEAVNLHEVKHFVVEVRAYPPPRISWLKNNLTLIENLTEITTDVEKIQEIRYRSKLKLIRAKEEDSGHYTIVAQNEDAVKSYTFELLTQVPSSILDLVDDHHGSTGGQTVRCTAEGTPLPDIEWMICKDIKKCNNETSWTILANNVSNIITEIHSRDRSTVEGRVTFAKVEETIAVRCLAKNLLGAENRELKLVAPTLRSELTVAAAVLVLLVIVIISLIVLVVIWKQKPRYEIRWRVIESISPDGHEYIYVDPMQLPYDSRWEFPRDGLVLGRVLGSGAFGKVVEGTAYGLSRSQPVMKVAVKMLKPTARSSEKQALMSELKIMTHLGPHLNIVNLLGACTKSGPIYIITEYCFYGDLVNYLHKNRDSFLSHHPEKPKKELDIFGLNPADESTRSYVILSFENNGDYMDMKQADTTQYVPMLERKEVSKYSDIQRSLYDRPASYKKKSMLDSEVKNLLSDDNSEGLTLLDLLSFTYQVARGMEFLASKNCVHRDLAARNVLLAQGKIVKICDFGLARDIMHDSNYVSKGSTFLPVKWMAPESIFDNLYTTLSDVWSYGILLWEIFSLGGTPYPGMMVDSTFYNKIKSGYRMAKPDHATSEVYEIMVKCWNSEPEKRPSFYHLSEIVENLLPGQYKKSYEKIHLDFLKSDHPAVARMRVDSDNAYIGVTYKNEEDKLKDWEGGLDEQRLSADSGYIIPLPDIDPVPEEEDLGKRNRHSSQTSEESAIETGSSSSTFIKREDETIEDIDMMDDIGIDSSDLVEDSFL
T5 sequence (P42338 whole entry): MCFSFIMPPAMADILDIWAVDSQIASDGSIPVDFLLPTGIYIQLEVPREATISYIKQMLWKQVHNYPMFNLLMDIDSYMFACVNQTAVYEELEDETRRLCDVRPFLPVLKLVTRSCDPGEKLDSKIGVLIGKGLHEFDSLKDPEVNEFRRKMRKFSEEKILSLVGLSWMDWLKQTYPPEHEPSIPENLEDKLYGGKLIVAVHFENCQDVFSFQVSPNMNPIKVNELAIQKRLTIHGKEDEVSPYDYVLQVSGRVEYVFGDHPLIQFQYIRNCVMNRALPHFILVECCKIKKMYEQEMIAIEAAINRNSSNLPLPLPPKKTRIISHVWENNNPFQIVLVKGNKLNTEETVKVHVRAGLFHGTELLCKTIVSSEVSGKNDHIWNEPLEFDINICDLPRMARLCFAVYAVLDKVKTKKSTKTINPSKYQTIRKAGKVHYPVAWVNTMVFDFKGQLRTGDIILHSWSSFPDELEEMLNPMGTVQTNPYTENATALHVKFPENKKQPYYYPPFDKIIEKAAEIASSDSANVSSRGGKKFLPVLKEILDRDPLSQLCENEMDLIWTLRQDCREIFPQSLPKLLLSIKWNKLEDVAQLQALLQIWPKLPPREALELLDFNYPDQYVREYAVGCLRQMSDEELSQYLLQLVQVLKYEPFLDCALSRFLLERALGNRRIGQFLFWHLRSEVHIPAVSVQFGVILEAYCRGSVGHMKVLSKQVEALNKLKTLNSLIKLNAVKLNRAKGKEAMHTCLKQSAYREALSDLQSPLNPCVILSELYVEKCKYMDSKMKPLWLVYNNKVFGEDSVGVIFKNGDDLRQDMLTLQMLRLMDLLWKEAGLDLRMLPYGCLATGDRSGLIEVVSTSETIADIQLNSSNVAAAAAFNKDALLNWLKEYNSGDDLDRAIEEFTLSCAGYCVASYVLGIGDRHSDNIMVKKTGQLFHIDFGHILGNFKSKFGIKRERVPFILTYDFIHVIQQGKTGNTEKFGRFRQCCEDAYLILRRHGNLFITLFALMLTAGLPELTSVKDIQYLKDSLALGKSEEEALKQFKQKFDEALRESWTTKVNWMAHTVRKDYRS
T5 sequence (P27986 whole entry partner): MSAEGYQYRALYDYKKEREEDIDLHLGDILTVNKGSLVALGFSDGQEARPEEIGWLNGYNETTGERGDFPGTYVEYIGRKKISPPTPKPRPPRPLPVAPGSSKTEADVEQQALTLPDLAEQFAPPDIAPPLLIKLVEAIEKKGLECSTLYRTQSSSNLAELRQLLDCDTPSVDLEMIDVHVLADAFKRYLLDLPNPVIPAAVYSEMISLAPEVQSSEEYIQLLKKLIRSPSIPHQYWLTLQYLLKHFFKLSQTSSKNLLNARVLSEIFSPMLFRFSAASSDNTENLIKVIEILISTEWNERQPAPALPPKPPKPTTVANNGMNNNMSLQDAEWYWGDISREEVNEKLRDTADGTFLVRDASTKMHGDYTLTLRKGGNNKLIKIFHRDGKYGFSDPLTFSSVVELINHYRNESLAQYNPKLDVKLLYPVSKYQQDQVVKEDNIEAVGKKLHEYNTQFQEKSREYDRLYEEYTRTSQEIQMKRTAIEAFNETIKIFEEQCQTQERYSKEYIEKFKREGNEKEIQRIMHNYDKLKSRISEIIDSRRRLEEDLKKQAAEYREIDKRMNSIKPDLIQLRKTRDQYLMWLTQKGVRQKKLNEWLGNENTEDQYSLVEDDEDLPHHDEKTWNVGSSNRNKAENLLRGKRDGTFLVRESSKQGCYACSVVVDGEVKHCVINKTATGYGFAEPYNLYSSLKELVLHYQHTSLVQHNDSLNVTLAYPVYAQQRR
T4 sequence (P48736 whole entry): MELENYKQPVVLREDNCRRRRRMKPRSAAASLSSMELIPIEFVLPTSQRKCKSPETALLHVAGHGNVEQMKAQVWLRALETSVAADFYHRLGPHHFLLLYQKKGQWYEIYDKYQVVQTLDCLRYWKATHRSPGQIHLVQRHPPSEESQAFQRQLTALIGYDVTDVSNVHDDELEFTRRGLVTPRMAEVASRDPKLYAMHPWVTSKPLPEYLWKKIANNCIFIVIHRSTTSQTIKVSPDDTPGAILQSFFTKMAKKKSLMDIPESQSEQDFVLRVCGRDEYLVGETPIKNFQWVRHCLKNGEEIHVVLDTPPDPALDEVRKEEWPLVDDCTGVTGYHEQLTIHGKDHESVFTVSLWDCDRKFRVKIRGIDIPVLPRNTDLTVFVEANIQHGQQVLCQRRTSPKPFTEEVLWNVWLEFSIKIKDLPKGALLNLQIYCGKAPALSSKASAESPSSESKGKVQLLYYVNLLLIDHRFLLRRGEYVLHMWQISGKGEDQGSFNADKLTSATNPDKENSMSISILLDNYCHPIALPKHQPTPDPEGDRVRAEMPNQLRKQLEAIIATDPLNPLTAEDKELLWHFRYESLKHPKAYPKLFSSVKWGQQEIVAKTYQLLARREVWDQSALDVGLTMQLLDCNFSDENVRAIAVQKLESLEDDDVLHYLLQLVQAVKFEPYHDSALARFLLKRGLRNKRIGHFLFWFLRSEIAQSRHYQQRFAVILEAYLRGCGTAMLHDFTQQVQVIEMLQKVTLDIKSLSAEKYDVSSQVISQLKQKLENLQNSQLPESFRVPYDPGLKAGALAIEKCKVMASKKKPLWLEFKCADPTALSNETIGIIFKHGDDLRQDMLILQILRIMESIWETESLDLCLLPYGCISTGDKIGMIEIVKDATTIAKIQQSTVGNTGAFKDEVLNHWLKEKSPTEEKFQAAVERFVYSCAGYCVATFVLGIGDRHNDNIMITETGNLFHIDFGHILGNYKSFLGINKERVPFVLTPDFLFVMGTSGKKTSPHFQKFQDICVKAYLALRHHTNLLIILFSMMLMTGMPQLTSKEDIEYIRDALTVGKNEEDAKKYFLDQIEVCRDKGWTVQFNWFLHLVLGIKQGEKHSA
PI3K-α, sequence (P42336 whole entry): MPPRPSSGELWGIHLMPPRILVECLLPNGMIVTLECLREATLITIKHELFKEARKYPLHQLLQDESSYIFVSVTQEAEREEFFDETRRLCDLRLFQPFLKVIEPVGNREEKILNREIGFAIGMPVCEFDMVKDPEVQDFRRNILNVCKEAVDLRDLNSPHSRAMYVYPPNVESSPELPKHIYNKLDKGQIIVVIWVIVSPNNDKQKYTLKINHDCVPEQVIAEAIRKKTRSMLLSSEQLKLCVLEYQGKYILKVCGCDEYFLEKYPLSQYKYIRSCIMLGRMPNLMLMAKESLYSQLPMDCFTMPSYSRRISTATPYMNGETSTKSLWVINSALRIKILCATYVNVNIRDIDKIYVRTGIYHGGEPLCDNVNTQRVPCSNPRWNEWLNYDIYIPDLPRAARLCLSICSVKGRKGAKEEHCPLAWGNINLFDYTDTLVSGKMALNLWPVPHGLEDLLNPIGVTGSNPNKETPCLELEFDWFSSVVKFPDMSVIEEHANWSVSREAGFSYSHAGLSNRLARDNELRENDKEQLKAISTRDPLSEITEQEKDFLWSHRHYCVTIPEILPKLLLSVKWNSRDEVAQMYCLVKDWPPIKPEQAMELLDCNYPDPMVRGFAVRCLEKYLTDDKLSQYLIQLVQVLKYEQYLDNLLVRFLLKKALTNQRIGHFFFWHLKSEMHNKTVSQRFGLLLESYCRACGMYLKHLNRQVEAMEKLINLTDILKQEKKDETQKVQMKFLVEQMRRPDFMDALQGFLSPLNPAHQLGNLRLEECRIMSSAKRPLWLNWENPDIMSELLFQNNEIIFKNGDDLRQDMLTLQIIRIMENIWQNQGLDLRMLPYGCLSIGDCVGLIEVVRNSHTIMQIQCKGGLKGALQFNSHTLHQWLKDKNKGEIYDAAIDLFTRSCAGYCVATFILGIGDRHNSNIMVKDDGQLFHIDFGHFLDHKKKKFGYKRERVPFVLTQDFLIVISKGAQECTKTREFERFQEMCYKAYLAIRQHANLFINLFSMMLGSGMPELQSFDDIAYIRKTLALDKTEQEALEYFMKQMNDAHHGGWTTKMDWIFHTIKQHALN
PI3K-α, sequence (P27986 whole entry partner): as the sequence (P27986 whole entry partner) above

Time Dependence Observed? TNK1 ([1]; 15 vs 60 Min preincubation): No
IC50 ([1]; preincubation 15 Min): 0.21 µM
IC50 ([1]; preincubation 60 Min): 0.241 µM
Time Dependence Observed? PI3K-α ([2]; 15 vs 60 Min preincubation): Yes
IC50 ([2]; preincubation 15 Min): 0.899 µM
IC50 ([2]; preincubation 60 Min): 0.387 µM
Time Dependence Observed? Aurora A ([3]; 15 vs 60 Min preincubation): No
IC50 ([3]; preincubation 15 Min): 2.74 µM
IC50 ([3]; preincubation 60 Min): 2.63 µM
Time Dependence Observed? ARAF ([4]; 15 vs 60 Min preincubation): Yes
IC50 ([4]; preincubation 15 Min): 1.39 µM
IC50 ([4]; preincubation 60 Min): 1.3 µM
Time Dependence Observed? PI3K-γ ([5]; 15 vs 60 Min preincubation): Yes
IC50 ([5]; preincubation 15 Min): 0.127 µM
IC50 ([5]; preincubation 60 Min): 0.0578 µM
Time Dependence Observed? PDGFR-α ([6]; 15 vs 60 Min preincubation): No
IC50 ([6]; preincubation 15 Min): 0.178 µM
IC50 ([6]; preincubation 60 Min): 0.342 µM
Time Dependence Observed? PI3K-β ([7]; 15 vs 60 Min preincubation): Yes
IC50 ([7]; preincubation 15 Min): 12.6 µM
IC50 ([7]; preincubation 60 Min): 2.91 µM
Structure (SMILES): Cc1ccc(NC(=O)c2nc(S(C)(=O)=O)[nH]c2-c2ccc(F)cc2)cc1Nc1nccc(-c2cccnc2)n1 [Inhibitor I-14, 3-(4-(pyridin-3-yl)-pyrimidinyl-2-yl)amino-4-methyl-analine, 5-(4-Fluorophenyl)-2-(methylsulfonyl)-1H-imidazole-4-carboxamide]
